Test results published in PubChem BioAssay (NCI).
Where “and” joins values, the source holds several entries; their conditions need not be identical. Identical values can stand only once.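 All cell lines were grown in 96-well plates and treated with compound for 48 hours. The concentration for 50% growth inhibition is given as GI50. TGI denotes the concentration required for complete inhibition of growth.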 *1 amine or outer side, *2 acyl side, *3 side chain or, on linkers, in order; H or OH if unused. Where a SMILES comes first, the peptide text is derived from it. Bridges are numbered along the chain shown (N, C = ends). Roman numbers before positions name the chains, in order. [ ]: non-standard residue; d: D form. Actinocin(1to9) = Cc1c2oc3c(C)ccc(C(=O)[*:2])c3nc-2c(C(=O)[*:1])c(N)c1=O; NMeV = CN[CH](C(=O)O)C(C)C; Sar = CNCC(=O)O

What was measured:
Assay in all cases: growth of human tumour cells (NCI), 48 h
SF-295 CNS = test system: SF-295 CNS
K-562 leukemia = test system: K-562 leukemia
HOP-92 NSCLC = test system: HOP-92 NSCLC
HCC-2998 colon = test system: HCC-2998 colon
PC-3 prostate = test system: PC-3 prostate
SN12C renal = test system: SN12C renal
SK-MEL-2 melanoma = test system: SK-MEL-2 melanoma
MDA-N = test system: MDA-N
786-0 renal = test system: 786-0 renal
KM12 colon = test system: KM12 colon
HOP-62 NSCLC = test system: HOP-62 NSCLC
BT-549 breast = test system: BT-549 breast
SK-MEL-5 melanoma = test system: SK-MEL-5 melanoma
SK-MEL-28 melanoma = test system: SK-MEL-28 melanoma
HL-60(TB) leukemia = test system: HL-60(TB) leukemia
SF-268 CNS = test system: SF-268 CNS
U251 CNS = test system: U251 CNS
T-47D breast = test system: T-47D breast

Row | SMILES | TGI (SF-295 CNS) | TGI (K-562 leukemia) | TGI (HOP-92 NSCLC) | TGI (HCC-2998 colon) | TGI (PC-3 prostate) | TGI (SN12C renal) | TGI (SK-MEL-2 melanoma) | TGI (MDA-N) | TGI (786-0 renal) | TGI (KM12 colon) | TGI (HOP-62 NSCLC) | TGI (BT-549 breast) | TGI (SK-MEL-5 melanoma) | TGI (SK-MEL-28 melanoma) | TGI (HL-60(TB) leukemia) | TGI (SF-268 CNS) | TGI (U251 CNS) | TGI (T-47D breast) | GI50 (HCC-2998 colon) | GI50 (SF-268 CNS)
1 | O=C(N[C@H](CO)[C@H](O)c1ccc([N+](=O)[O-])cc1)C(Cl)Cl | > 100 µM | > 100 µM | > 100 µM | > 100 µM | > 100 µM | > 100 µM | > 100 µM | > 100 µM | > 100 µM | > 100 µM | > 100 µM | > 100 µM | > 100 µM | > 100 µM | > 100 µM | > 100 µM | > 100 µM |  |  | 
2 | Cc1ccc(N=NC(=O)NNc2ccc(C)cc2Br)c(Br)c1 |  | 51.5 µM |  | 31.3 µM | 72.5 µM | 51.2 µM | 32 µM | 48.3 µM | 42.4 µM |  | 41.1 µM | 89.3 µM | 33.9 µM | 47.4 µM | 63 µM | 97.2 µM | 34.9 µM | > 100 µM |  | 
3 | CCOC(=O)CCCc1cc(=O)c2c(C)c3[nH]c4ccc(Cl)cc4c3c(C)c2[nH]1 | 67 µM | 79.6 µM | 68.2 µM | > 100 µM | 70.6 µM | 95.3 µM | 71.8 µM | > 100 µM | 38.2 µM | > 100 µM | 44.4 µM | 41.8 µM | 49.2 µM | > 100 µM | 82.3 µM | 54 µM | 50.5 µM |  |  | 
4 | CC(C)=NC(C(=O)O)C(C)(C)S (stereo unspecified) | > 100 µM | > 100 µM | > 100 µM |  | > 100 µM | > 100 µM | > 100 µM | > 100 µM | > 100 µM | > 100 µM | > 100 µM | > 100 µM |  | > 100 µM | > 100 µM | > 100 µM | > 100 µM | > 100 µM |  | 
5 | CC1=C(C)C2(C#N)C(=O)N3C(=NC(c4ccco4)NC3c3ccco3)C2(C#N)C(c2ccco2)N1 (stereo unspecified) | > 100 µM |  | > 100 µM | > 100 µM | > 100 µM | > 100 µM | > 100 µM | > 100 µM | > 100 µM | > 100 µM | > 100 µM | > 100 µM | > 100 µM | > 100 µM | > 100 µM | > 100 µM | > 100 µM | > 100 µM |  | 
6 | CNc1ccc(C)cc1S(=O)(=O)c1ccccc1[N+](=O)[O-] | > 100 µM | > 100 µM |  | > 100 µM | > 100 µM | > 100 µM | > 100 µM | > 100 µM | > 100 µM | > 100 µM | > 100 µM | > 100 µM | 46.1 µM | > 100 µM |  | > 100 µM | > 100 µM | > 100 µM |  | 
7 | COc1ccc(NCc2cccc3c(=O)c4ccc(Cl)cc4oc23)cc1 | > 100 µM | > 100 µM | > 100 µM | > 100 µM | > 100 µM | > 100 µM | > 100 µM | > 100 µM | > 100 µM | > 100 µM | > 100 µM | > 100 µM | > 100 µM | > 100 µM |  |  | > 100 µM | > 100 µM |  | 
8 | O=c1nc(N2CCCCC2)sc2[nH]c3ccccc3c12 | > 100 µM | > 100 µM | > 100 µM |  | > 100 µM | > 100 µM | > 100 µM | > 100 µM | > 100 µM | > 100 µM | > 100 µM | > 100 µM | > 100 µM | > 100 µM | > 100 µM | > 100 µM | > 100 µM | > 100 µM |  | 
9 | C#CCNCC(=O)O | > 100 µM |  | > 100 µM | > 100 µM | > 100 µM |  | > 100 µM | > 100 µM | > 100 µM | > 100 µM | > 100 µM | > 100 µM | > 100 µM | > 100 µM |  | > 100 µM | > 100 µM | > 100 µM |  | 
10 | CC(NC1=NCCO1)c1ccsc1 (stereo unspecified) | 39.4 µM | 68 µM | 92.5 µM | > 100 µM | 57.8 µM |  | 50.2 µM | 65.8 µM | 42.9 µM | 36.1 µM |  | > 100 µM | 40.1 µM | 43 µM | 53.3 µM |  | 36.8 µM | > 100 µM |  | 
11 | CCc1n[nH]c(=O)n1-n1c(C)ccc1C | > 100 µM | > 100 µM |  | > 100 µM | > 100 µM | > 100 µM | > 100 µM | > 100 µM | > 100 µM | > 100 µM | > 100 µM | > 100 µM | > 100 µM | > 100 µM |  | > 100 µM | > 100 µM | > 100 µM |  | 
12 | CC(=O)OC1CCn2c1nc1c2C(=O)C=C(N2CC2)C1=O (stereo unspecified) | 5.61 µM | 4.54 µM | 1.83 µM | 3.07 µM | 2.52 µM | 1.86 µM | 0.439 µM | 1.06 µM | 0.557 µM |  | 4.69 µM | 2.54 µM | 0.305 µM | 0.147 µM | 0.494 µM | 0.784 µM | 0.853 µM | 2.38 µM |  | 
13 | COc1ccc(CC2NC(=O)C(NC(=O)c3c4nc5c(C(=O)NC6C(=O)NC(Cc7ccc(OC)cc7)C(=O)N7CCCC7C(=O)N(C)CC(=O)N(C)C(C(C)C)C(=O)OC6C)ccc(C)c5oc-4c(C)c(=O)c3N)C(C)OC(=O)C(C(C)C)N(C)C(=O)CN(C)C(=O)C3CCCN3C2=O)cc1 (stereo unspecified) (I: TY(Me)P[Sar][NMeV] / II: TY(Me)P[Sar][NMeV]; ester I:1-I:C, II:1-II:C; linker I:N-II:N via Actinocin(1to9); configuration not given here) | > 100 µM | 0.0708 µM |  |  | 0.355 µM and 0.212 µM |  | 0.00549 µM | 0.0876 µM | 0.0253 µM | 1.06 µM | 0.0405 µM and 0.236 µM | 0.0254 µM | 0.0172 µM |  | < 0.001 µM | 0.118 µM and 0.526 µM |  | 0.0705 µM | 0.013 µM | < 0.001 µM
14 | CC(=O)Nc1ccc2cc(C#N)c(=O)[nH]c2n1 | > 100 µM | > 100 µM | > 100 µM | > 100 µM | > 100 µM | > 100 µM | > 100 µM | > 100 µM | > 100 µM | > 100 µM | > 100 µM | > 100 µM | > 100 µM | > 100 µM |  | > 100 µM | > 100 µM | > 100 µM |  | 
